Measurements from patent publication US20240342148A1, “METHODS OF TREATING FACIOSCAPULOHUMERAL MUSCULAR DYSTROPHY WITH LOSMAPIMOD” (Fulcrum Therapeutics, Inc., priority 2021, published 2024).

System: subjects with FSHD
Assay: WB-MSK MRI composite scores (MFI, MFF, LMV)
Type: in vivo, human
Description: The images were acquired in five different sections. The rotator cuff was imaged using a neck coil, torso and legs using anterior surface coils and integrated table coils, and the upper extremities using a surface and table coils, after the patient was repositioned such that the extremity was in the center of the MRI scanner. T1-weighted Dixon-images of 18 muscles bilaterally, 36 total, were acquired and water and fat images were reconstructed using the scanner built-in phase-sensitive reconstruction (Siemens: Dixon-Vibe; Philips: mDixon). Three different measures were calculated for each muscle. The muscle fat fraction (MFF) is the total fat fraction inside the muscle fascia. The muscle fat infiltration (MFI) represents the diffuse fat infiltration in the muscle tissue and is defined as the fat fraction of the muscle voxels that contain <50% fat. Therefore, MFI measures the MFF for muscle tissue that is not end-stage. The lean muscle volume (LMV) represents the total amount of functional muscle tissue and is measured by removing all fat within the muscle volume. Each muscle was categorized based on these measures and supported by prior literature as normal appearing (Category A, MFI<0.10; MFF<0.50), intermediate (Category B, MFI≥0.10; MFF<0.50), and late-stage (Category C, MFF≥0.50). Two composite scores were used to assess the treatment efficacy and correlation with relevant clinical outcome assessments. The treatment efficacy composite score includes only those muscles identified as normal appearing or at high risk for progression (Category A or B muscles) at baseline that were measurable at both observation timepoints, having no signal quality issues. The regional composite scores for correlations are composed of all muscles that were involved in the specific functional assessment of interest regardless of their categorization (FIG. 2). The scores were derived by scientists at the MRI Service Provider (AMRA Medical Inc.) in a blinded fashion, with no access to treatment assignment information. Measurements for muscles with major quality issues, (i.e., muscles with missing values), were imputed. Late-stage muscles were not included in the analysis as these contain high fat fraction which makes them challenging to quantify accurately, and likely are already not functional. A mixed-effects model for repeated measures (MMRM) was used to analyze the change from baseline in each composite MRI score (MFFtotal, LMVtotal, and MFItotal), with repeat number category, treatment group, visit, and treatment-by-visit interactions as fixed effects and baseline value of the parameter as a covariate. […]

SMILES: Cc1c(F)cc(C(=O)NC2CC2)cc1-c1ccc(C(=O)NCC(C)(C)C)cn1 [losmapimod, 6-(5-cyclopropylcarbamoyl-3-fluoro-2-methyl-phenyl)-N-(2,2-dimethylpropyl-)-nicotinamide]
- MFI or MFF in normal appearing muscles at baseline (A muscles), post-hoc (A muscles, compared to placebo): little or no accumulation of fat
- LMV vs placebo (B muscles): no difference
- MFF fat replacement vs placebo (B muscles): nonsignificant reduction
- MFI efficacy composite vs placebo (muscles at high risk of progression (B muscles), p=0.01): significantly less fat infiltration
